Source: ChEMBL document CHEMBL1201862, “PubChem BioAssay data set” (2004)
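Step 1: Grow cells in 96-well plates. Step 2: Expose to compound for 48 hours at 5 concentrations. Step 3: Interpolate endpoints linearly; if unreached, use highest concentration. GI50: concentration for 50% inhibition of growth.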 Calls of active or inactive are those of the source. Cut-off read from the data, not from the text of the source: active = GI50 up to about 1.1 µM and inactive = higher.

Key:
Assay in all cases: NCI anticancer screen, dose series, 48 h
[1] = test system: UO-31
[2] = test system: SNB-19
[3] = test system: SF-295
[4] = test system: NCI-H226
[5] = test system: LOX IMVI
[6] = test system: NCI-H23
[7] = test system: SNB-78
[8] = test system: M14
[9] = test system: HOP-62
[10] = test system: HCT-15
[11] = test system: UACC-62
[12] = test system: OVCAR-3
[13] = test system: A549
[14] = test system: TK-10
[15] = test system: OVCAR-4
[16] = test system: SK-MEL-2
[17] = test system: HOP-92
[18] = test system: M19-MEL
[19] = test system: CAKI-1
[20] = test system: HT-29
[21] = test system: SK-OV-3
[22] = test system: NCI-H460
[23] = test system: SF-268
[24] = test system: EKVX
[25] = test system: OVCAR-8
[26] = test system: MOLT-4
[27] = test system: SNB-75
[28] = test system: KM-20L2
[29] = test system: LXFL 529
[30] = test system: Malme-3M
[31] = test system: OVCAR-5
[32] = test system: A498
[33] = test system: COLO 205
[34] = test system: HCT-116
[35] = test system: SW-620
[36] = test system: SN12C
[37] = test system: SF-539
[38] = test system: RPMI-8226
[39] = test system: RXF 393
[40] = test system: K562
[41] = test system: DLD-1
[42] = test system: HL-60
[43] = test system: SK-MEL-5
[44] = test system: DMS-273
[45] = test system: ACHN
[46] = test system: DMS-114
[47] = test system: IGROV-1
[48] = test system: XF498
[49] = test system: UACC-257
[50] = test system: CCRF-CEM
[51] = test system: RXF 631
[52] = test system: NCI-H522
[53] = test system: SK-MEL-28
[54] = test system: 786-0
[55] = test system: KM12
[56] = test system: U-251
[57] = test system: HCC 2998
[58] = test system: T47D
[59] = test system: MCF7
[60] = test system: PC-3
[61] = test system: Hs-578T
[62] = test system: MDA-N
[63] = test system: MDA-MB-231
[64] = test system: MDA-MB-435
[65] = test system: DU-145
[66] = test system: BT-549
[67] = test system: SR
[68] = test system: NCI/ADR-RES

SMILES: N#CCc1ccc(/C(C#N)=C2/OC(=N)C(c3ccc(CC#N)cc3)C2=O)cc1 (configuration not stated)
- GI50 [1]: > 100 µM (inactive)
- GI50 [2]: > 100 µM (inactive)
- GI50 [3]: > 100 µM (inactive)
- GI50 [4]: > 100 µM (inactive)
- GI50 [5]: > 100 µM (inactive)
- GI50 [6]: > 100 µM (inactive)
- GI50 [7]: > 100 µM (inactive)
- GI50 [8]: > 100 µM (inactive)
- GI50 [9]: > 100 µM (inactive)
- GI50 [10]: > 100 µM
- GI50 [11]: > 100 µM (inactive)
- GI50 [12]: > 100 µM (inactive)
- GI50 [13]: > 100 µM (inactive)
- GI50 [14]: > 100 µM (inactive)
- GI50 [15]: > 100 µM (inactive)
- GI50 [16]: > 100 µM (inactive)
- GI50 [17]: > 100 µM (inactive)
- GI50 [18]: > 100 µM (inactive)
- GI50 [19]: > 100 µM (inactive)
- GI50 [20]: > 100 µM (inactive)
- GI50 [21]: > 100 µM (inactive)
- GI50 [22]: > 100 µM (inactive)
- GI50 [23]: > 100 µM (inactive)
- GI50 [24]: > 100 µM (inactive)
- GI50 [25]: > 100 µM (inactive)
- GI50 [26]: > 100 µM (inactive)
- GI50 [27]: > 100 µM (inactive)
- GI50 [28]: > 100 µM (inactive)
- GI50 [29]: > 100 µM (inactive)
- GI50 [30]: > 100 µM (inactive)
- GI50 [31]: > 100 µM (inactive)
- GI50 [32]: > 100 µM (inactive)
- GI50 [33]: > 100 µM (inactive)
- GI50 [34]: > 100 µM (inactive)
- GI50 [35]: > 100 µM (inactive)
- GI50 [36]: > 100 µM (inactive)
- GI50 [37]: > 100 µM (inactive)
- GI50 [38]: > 100 µM (inactive)
- GI50 [39]: > 100 µM (inactive)
- GI50 [40]: > 100 µM (inactive)
- GI50 [41]: > 100 µM (inactive)
- GI50 [42]: > 100 µM (inactive)
- GI50 [43]: > 100 µM (inactive)
- GI50 [44]: > 100 µM (inactive)
- GI50 [45]: > 100 µM (inactive)
- GI50 [46]: > 100 µM (inactive)
- GI50 [47]: > 100 µM (inactive)
- GI50 [48]: > 100 µM (inactive)
- GI50 [49]: > 100 µM (inactive)
- GI50 [50]: > 100 µM (inactive)
- GI50 [51]: > 100 µM (inactive)
- GI50 [52]: > 100 µM (inactive)
- GI50 [53]: > 100 µM (inactive)
- GI50 [54]: > 100 µM (inactive)

SMILES: CC1(C)COC(c2cccc3c2C(=O)c2cccc(Cl)c2-3)=N1
- GI50 [1]: 27.1 µM (inactive)
- GI50 [2]: 21.1 µM (inactive)
- GI50 [3]: 48.4 µM (inactive)
- GI50 [5]: 51.9 µM (inactive)
- GI50 [55]: 47.9 µM (inactive)
- GI50 [6]: 52.5 µM (inactive)
- GI50 [7]: 97.1 µM (inactive)
- GI50 [8]: 47.9 µM (inactive)
- GI50 [10]: 56.4 µM
- GI50 [11]: 51.5 µM (inactive)
- GI50 [12]: 78.2 µM (inactive)
- GI50 [13]: 58.1 µM (inactive)
- GI50 [14]: 41.7 µM (inactive)
- GI50 [15]: 44.1 µM (inactive)
- GI50 [16]: > 100 µM (inactive)
- GI50 [56]: 68.4 µM (inactive)
- GI50 [19]: 55 µM (inactive)
- GI50 [20]: 32 µM (inactive)
- GI50 [21]: 48.8 µM (inactive)
- GI50 [22]: 50.4 µM (inactive)
- GI50 [23]: 56.5 µM (inactive)
- GI50 [24]: 38.3 µM (inactive)
- GI50 [25]: 38.4 µM (inactive)
- GI50 [26]: 29.2 µM (inactive)
- GI50 [27]: 41.7 µM (inactive)
- GI50 [28]: 39.9 µM (inactive)
- GI50 [29]: 37.7 µM (inactive)
- GI50 [30]: 84.7 µM (inactive)
- GI50 [31]: > 100 µM (inactive)
- GI50 [32]: 32.1 µM (inactive)
- GI50 [33]: 42.9 µM (inactive)
- GI50 [35]: 37.8 µM (inactive)
- GI50 [36]: 74 µM (inactive)
- GI50 [37]: 68.7 µM (inactive)
- GI50 [38]: 31.7 µM (inactive)
- GI50 [39]: 22.7 µM (inactive)
- GI50 [40]: 33.7 µM (inactive)
- GI50 [42]: 28.4 µM (inactive)
- GI50 [43]: 25.3 µM (inactive)
- GI50 [44]: 51.4 µM (inactive)
- GI50 [45]: 51.1 µM (inactive)
- GI50 [46]: 36 µM (inactive)
- GI50 [47]: > 100 µM (inactive)
- GI50 [48]: 46.7 µM (inactive)
- GI50 [49]: 33.7 µM (inactive)
- GI50 [50]: 43 µM (inactive)
- GI50 [51]: 74.3 µM (inactive)
- GI50 [52]: 31.8 µM (inactive)
- GI50 [57]: 29.7 µM (inactive)
- GI50 [53]: 58.7 µM (inactive)
- GI50 [54]: 39.4 µM (inactive)

SMILES: N=C(N)SCc1cccc2c(=O)cc(-c3ccccc3)oc12
- GI50 [1]: 2.84 µM (inactive)
- GI50 [58]: 3.75 µM (inactive)
- GI50 [59]: 2.73 µM (inactive)
- GI50 [2]: 23.9 µM (inactive)
- GI50 [3]: 11.4 µM (inactive)
- GI50 [4]: 15.9 µM (inactive)
- GI50 [60]: 4.54 µM (inactive)
- GI50 [5]: 12.2 µM (inactive)
- GI50 [55]: 9.29 µM (inactive)
- GI50 [6]: 5.58 µM (inactive)
- GI50 [61]: 16.2 µM (inactive)
- GI50 [7]: 6.32 µM (inactive)
- GI50 [8]: 5.28 µM (inactive)
- GI50 [9]: 10.8 µM (inactive)
- GI50 [62]: 6.53 µM (inactive)
- GI50 [63]: 6.41 µM (inactive)
- GI50 [10]: 10.5 µM
- GI50 [11]: 12.7 µM (inactive)
- GI50 [12]: 6.97 µM (inactive)
- GI50 [13]: 7.62 µM (inactive)
- GI50 [14]: 7.57 µM (inactive)
- GI50 [15]: 7.24 µM (inactive)
- GI50 [16]: 5.56 µM (inactive)
- GI50 [56]: 7.66 µM (inactive)
- GI50 [64]: 8.02 µM (inactive)
- GI50 [17]: 4.03 µM (inactive)
- GI50 [18]: 13.2 µM (inactive)
- GI50 [19]: 3.94 µM (inactive)
- GI50 [20]: 4.84 µM (inactive)
- GI50 [21]: 12.8 µM (inactive)
- GI50 [22]: 4.72 µM (inactive)
- GI50 [23]: 12.4 µM (inactive)
- GI50 [24]: 8.75 µM (inactive)
- GI50 [25]: 4.5 µM (inactive)
- GI50 [26]: 2.68 µM (inactive)
- GI50 [27]: 5.41 µM (inactive)
- GI50 [28]: 6.24 µM (inactive)
- GI50 [30]: 10.8 µM (inactive)
- GI50 [31]: 16.5 µM (inactive)
- GI50 [32]: 9.27 µM (inactive)
- GI50 [33]: 3.78 µM (inactive)
- GI50 [65]: 4.93 µM (inactive)
- GI50 [66]: 13.2 µM (inactive)
- GI50 [34]: 4.73 µM (inactive)
- GI50 [35]: 4.37 µM (inactive)
- GI50 [67]: 4.05 µM (inactive)
- GI50 [36]: 6.19 µM (inactive)
- GI50 [37]: 7.26 µM (inactive)
- GI50 [38]: 2.54 µM (inactive)
- GI50 [39]: 4.79 µM (inactive)
- GI50 [40]: 5.35 µM (inactive)
- GI50 [41]: 7.59 µM (inactive)
- GI50 [42]: 3.18 µM (inactive)
- GI50 [43]: 11.1 µM (inactive)
- GI50 [44]: 7.14 µM (inactive)
- GI50 [45]: 3.53 µM (inactive)
- GI50 [46]: 6.47 µM (inactive)
- GI50 [47]: 6.32 µM (inactive)
- GI50 [48]: 5.87 µM (inactive)
- GI50 [49]: 10.9 µM (inactive)
- GI50 [50]: 3.87 µM (inactive)
- GI50 [51]: 9.95 µM (inactive)
- GI50 [52]: 3.87 µM (inactive)
- GI50 [57]: 12 µM (inactive)
- GI50 [68]: 22 µM (inactive)
- GI50 [53]: 4.43 µM (inactive)
- GI50 [54]: 3.9 µM (inactive)
